{"source": "paper PMC12257540", "about": "“From Inhibitors to PET: SAR-Based Development of [^18F]SK60 for mIDH1 Imaging” (Journal of Medicinal Chemistry, 2025)", "key": {"[1]": {"target": "P-gp efflux transporter (Mus musculus, UniProt P21447)", "sequence (P21447 whole entry)": "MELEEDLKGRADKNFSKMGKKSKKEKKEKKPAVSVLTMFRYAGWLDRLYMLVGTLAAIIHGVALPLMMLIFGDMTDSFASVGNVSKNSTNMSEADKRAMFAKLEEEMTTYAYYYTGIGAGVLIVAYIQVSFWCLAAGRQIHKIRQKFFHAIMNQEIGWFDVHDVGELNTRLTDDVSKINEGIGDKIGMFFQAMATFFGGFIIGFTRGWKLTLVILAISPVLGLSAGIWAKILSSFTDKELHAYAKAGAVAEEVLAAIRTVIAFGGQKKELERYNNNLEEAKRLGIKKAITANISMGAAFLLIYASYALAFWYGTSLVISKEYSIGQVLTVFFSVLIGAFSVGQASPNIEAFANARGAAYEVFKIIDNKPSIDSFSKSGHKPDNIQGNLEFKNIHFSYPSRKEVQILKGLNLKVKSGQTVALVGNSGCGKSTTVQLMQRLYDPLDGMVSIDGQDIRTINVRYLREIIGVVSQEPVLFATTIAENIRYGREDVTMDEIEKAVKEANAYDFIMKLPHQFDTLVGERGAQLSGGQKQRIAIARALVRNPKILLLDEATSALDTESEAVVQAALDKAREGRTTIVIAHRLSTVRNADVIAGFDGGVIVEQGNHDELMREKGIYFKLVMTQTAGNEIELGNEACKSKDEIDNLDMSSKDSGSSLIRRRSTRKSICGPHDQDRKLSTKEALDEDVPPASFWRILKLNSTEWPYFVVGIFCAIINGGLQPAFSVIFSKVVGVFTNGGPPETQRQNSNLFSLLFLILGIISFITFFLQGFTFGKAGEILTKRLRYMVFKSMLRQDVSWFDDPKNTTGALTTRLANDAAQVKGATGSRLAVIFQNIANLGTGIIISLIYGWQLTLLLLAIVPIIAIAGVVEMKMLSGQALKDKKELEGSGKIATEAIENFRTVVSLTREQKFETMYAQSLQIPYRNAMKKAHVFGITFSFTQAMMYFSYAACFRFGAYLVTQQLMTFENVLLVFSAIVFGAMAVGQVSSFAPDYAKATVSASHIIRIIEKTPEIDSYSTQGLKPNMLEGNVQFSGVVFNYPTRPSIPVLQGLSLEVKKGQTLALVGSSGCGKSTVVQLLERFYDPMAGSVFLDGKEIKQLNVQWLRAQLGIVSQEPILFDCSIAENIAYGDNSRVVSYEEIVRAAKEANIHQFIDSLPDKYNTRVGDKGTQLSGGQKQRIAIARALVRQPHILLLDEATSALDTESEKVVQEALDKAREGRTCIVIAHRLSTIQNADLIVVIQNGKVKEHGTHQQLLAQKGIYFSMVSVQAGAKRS", "test": "Efflux transporter P-gp substrate study (PET, cyclosporine A pretreatment)", "conditions": "cyclosporine A 50 mg/kg i.v. 30 min before radioligand", "description": "To investigate the role of P-gp, mice were treated with cyclosporine A, an inhibitor of the P-gp efflux transporter.\n(§1) For the time of the experiments, female CD-1 mice (n = 4; 8–10 weeks; 37–40 g) were kept in a dedicated climatic chamber with free access to water and food under a 12:12 h dark: light cycle at a constant temperature (24 °C). The animals were anesthetized (Anaesthesia Unit U-410, agntho’s, Lidingö, Sweden) with isoflurane (2.0%, 300 mL/min) delivered in a 20% oxygen/80% air mixture (Gas Blender 100 Series, MCQ instruments, Rome, Italy) and their body temperature maintained at 37 °C with a thermal bed system. […] Each PET image was corrected for random coincidences, dead time, scatter, and attenuation (AC) based on a whole body (WB) MR scan. The reconstruction parameters for the list mode data were 3D-ordered subset expectation maximization (OSEM), 4 iterations, 6 subsets, energy window: 400–600 keV, coincidence mode: 1–5, ring difference: 81. The PET data were collected by a continuous WB scan during the entire investigation. […] The brain region was identified using the mouse brain atlas template Ma-Benveniste-Mirrione-FDG. The activity data are expressed as the SUVmean of the overall ROI."}, "[2]": {"system": "IDH1R132H–U251 cells", "test": "In vitro cell uptake of [18F]SK60 in IDH1R132H-U251 cells", "format": "cell-based, Human", "conditions": "240 min incubation", "protocol": "Human U251 glioblastoma cells, stably transfected and overexpressing either wild-type IDH1 (IDH1-U251) or IDH1R132H (IDH1R132H–U251), were obtained from Jaqueline Kessler and Dirk Vordermark (Department of Radiotherapy, Martin Luther University Halle-Wittenberg, Halle/Saale, Germany). Cells were grown in RPMI 1640 medium (10% FCS), supplemented with puromycin, to ensure the cultivation of transfected cells only.\nThe IDH1-U251 and IDH1R132H–U251 cells were seeded at 4,00,000 cells/mL in a 24-well cell culture plate 1 day before the experiment. The medium was replaced by 400 μL/well, and 4 μL of a 100-x stock solution of the respective inhibitor in 10% DMSO or vehicle (10% DMSO) was added about 2 h before the experiment. The experiment was started with the addition of 100 μL of [ ^ 18 F]-SK60 (0.477 ± 0.002 MBq/mL; 4.86 ± 0.33 nM) diluted in cell culture medium per well, and the well plates were incubated in a humidified-air atmosphere incubator containing 5% CO2 at 37 °C for various times. The incubation was stopped by aspiration of the supernatant and washing the cell layers twice with prechilled PBS (500 μL/well). […] The concentrations of surface-bound and internalized activities per well were calculated as a percentage of the applied dose per well and normalized to the protein concentration per well (% AD/μg protein). […]"}, "[3]": {"test": "PET-based biodistribution in naïve mice", "description": "as §1"}, "[4]": {"test": "In vivo metabolism in naïve mice (radio-RP-HPLC and radio-MLC of plasma and brain)", "design": "species or system CD-1 mice", "conditions": "30 min p.i., i.v.; for parent radioligand fraction in brain: mouse brain; for parent radioligand fraction in plasma: mouse plasma", "protocol": "The metabolic stability of [ ^ 18 F]-SK60 was investigated ex vivo by radio-RP-HPLC and radio-micellar-HPLC (MLC) analyses of plasma and brain samples obtained from naïve female mice (n = 3) at 30 min post intravenous injection (p.i.). For the preparation of the RP-HPLC samples, two solvent systems MeCN/water (9/1; v/v) and MeOH/water (9/1; v/v) were tested for activity extraction from the plasma and brain samples. With both systems, recoveries of higher than 95% could be obtained. […] For the radio-MLC analyses, the brain and plasma samples were treated with sodium dodecyl sulfate and directly injected into the MLC system. Despite the slightly different elution profile compared to the RP-HPLC system caused by different separation mechanisms, the quantification of the peaks gave similar results (Figure B). Altogether, the results obtained with these two complementary systems indicate a high metabolic stability of [ ^ 18 F]-SK60 in mice without the formation of brain-penetrable radiometabolites.\n[ ^ 18 F]-SK60 (24.3 ± 2.89 MBq) diluted in 200 μL of sterile isotonic saline was injected into the tail vein of restrained, awake mice. Thirty min after injection, animals were anesthetized with isoflurane, blood was collected from the retro-orbital plexus with a heparinized glass Pasteur pipet, and the anesthetized animal was sacrificed by cervical dislocation. Blood plasma was obtained by centrifugation of the whole blood (8000 rpm, 4 °C, 2 min). The brain was isolated, rapidly rinsed with 1 mL isotonic saline to remove superficial blood, and finally homogenized in 1 mL deionized water in an ice–water bath (Potter B. Braun, 1000 rpm, 10 strokes).\nProtein precipitation and extraction were performed by using an ice-cold MeCN/water (9:1 v/v) or MeOH/water (9:1 v/v) mixture at a 4:1 (v/v) solvent-to-sample ratio for plasma or brain homogenates. Samples were vortexed for 3 min, equilibrated on ice for 5 min, and centrifuged at 10,000 rpm for 5 min. […] Combined supernatants were concentrated under nitrogen at 75 °C to ∼100 μL and analyzed via radio-HPLC using a Reprosil-Pur 120 C18-AQ column with a gradient MeCN/20 mM NH4OAcaq (pH 6.8) elution (gradient: eluent A 10% MeCN/20 mM NH4OAcaq.; eluent B 90% MeCN/20 mM NH4OAcaq.; 0–5 min 100% A, 5–17 min up to 100% B, 17–26 min 100% B, 26–27 min up to 100% A, 27–30 min 100% A). […]\nFor the preparation of the MLC samples, mouse plasma (20–50 μL, 2–3 kBq) was dissolved in 200 μL of 200 mM aqueous sodium dodecyl sulfate (SDS) and injected into the MLC system. […] The MLC system consisted of a JASCO PU-980 pump, an AS-2055Plus autoinjector with a 2 mL sample loop, and a UV-1575 detector coupled with a γ radioactivity HPLC detector (Gabi Star, raytest Isotopenmessgeräte GmbH; Straubenhardt; Germany). […]"}}, "note": "“And” between values parts separate entries of the source, which are not always exact repeats. Equal entries are not always repeated."}
{"smiles": "Cc1cccc(NC(=O)c2nn(Cc3ccc([18F])cc3)c3c2CN(C(=O)c2ccc[nH]2)CC3(C)C)c1", "note": "[[18F]SK60]", "values": [{"measurement": "increase of brain uptake after cyclosporine A compared to vehicle", "setting": "[1]", "value": "approximately 2.5 fold"}, {"measurement": "internalized radioligand", "setting": "[2]", "value": "0.089 ± 0.02", "unit": "% AD/μg protein"}, {"measurement": "accumulation in gallbladder", "setting": "[3]; PET, gallbladder, 30 min, n = 2", "value": 60, "unit": "SUVmean"}, {"measurement": "accumulation in liver", "setting": "[3]; PET, liver, 30 min, n = 2", "value": 1.6, "unit": "SUVmean"}, {"measurement": "brain uptake", "setting": "[3]; brain, 15 min p.i.", "value": "~0.3", "unit": "SUVmean"}, {"measurement": "parent radioligand fraction in brain", "setting": "[4]; MLC", "value": 100, "unit": "%"}, {"measurement": "parent radioligand fraction in plasma", "setting": "[4]; MLC", "value": 79, "unit": "%"}, {"measurement": "parent radioligand fraction in brain", "setting": "[4]; RP-HPLC", "value": 100, "unit": "%"}, {"measurement": "parent radioligand fraction in plasma", "setting": "[4]; RP-HPLC", "value": "80 ± 2% and 80%"}]}
